The source of these data is US20240216317A1, “COMPOSITION FOR PREVENTING, AMELIORATING OR TREATING INFLAMMATORY BOWEL DISEASE COMPRISING COMPOUND ISOLATED FROM ISODON EXCISUS AS EFFECTIVE COMPONENT” (HEALINNOLS INC., priority 2022, published 2024).

One assay has as its target T1, RIPK2 (Homo sapiens, UniProt O43353).
T1 construct: Caco-2 cells were dissolved by adding buffer solution for degradation; endogenous in cells; host or cells: Caco-2
As to the kind of experiment: Inhibitory activity on RIPK2 phosphorylation using Western blot in Caco-2 cells. The conditions noted are these: FIG. 1. Type of assay: cell-based. How it is done: Caco-2 cells were adjusted to have density of 2×10^5 cells/ml. Suspension of the cells (0.5 ml) was aliquoted in apical side membrane phase of a transwell insert 12-well plate. To the basolateral side phase, 1.5 ml of culture medium were added. While replacing the medium with fresh one, once per 2 or 3 days, culture was continued for 21 days approximately, i.e., till to have cell division and suitable TEER (transepithelial electrical resistance) value of monolayer.
For measuring the electric resistance (TEER value, Ω·cm^2) between the apical side and basolateral side, EVOM resistance meter (EVOM2, WPI) was employed.
Once the TEER value of Caco-2 cells is 200 Ω·cm^2 or higher, MDP inside the insert was treated for 24 hours with the compound represented by Chemical formula 1 of the present invention. After washing Caco-2 cells inside the insert with 1×PBS, they were treated with trypsin. After centrifuge and washing with cold 1×PBS, Caco-2 cells were dissolved by adding buffer solution for degradation (50 mM Tris-HCl (pH 8.0), 5 mM EDTA, 15 mM NaCl, 1% NP-40, 1 mM PMSF) followed by centrifuge for 20 minutes at 12,000 rpm, 4° C. Only the supernatant was then collected and protein quantification was carried out by using BCA protein assay kit. […]

The test system of a further assay is TNF-α. Nature of the assay: TNF-α mRNA expression (qPCR) in zebra fish animal model of DSS-induced inflammatory bowel disease. Type of assay: in vivo, zebra fish (Danio rerio: AB). The conditions noted are these: FIG. 5; for expression amount of TNF-α compared to DSS model group: zebra fish larvae, 0.5% DSS, 5 hours treatment, Chemical formula 1 0.3 μM and 1 μM. How it is done:
As a zebra fish animal model of inflammatory bowel disease, wild-type zebra fish (Danio rerio: AB) was used, which was kept in an exclusive breeding facility at conditions including light/dark cycle of 14 hours/10 hours and temperature of 28° C. All the animal experiments were carried out according to the protocol of Ethics Committee for Animal Expectation, Healinno-LS (Registration No.: AEC-20210720-0001), and all the materials were sterilized first before they are used for experiment.
According to a treatment with 0.5% DSS (dextran sulfate sodium, M.W. 36,000-50,000, #160110, MP), which induces “ulcerative colitis” as inflammatory bowel disease by creating a damage in colonic epithelial cells, a zebra fish was induced to have inflammatory bowel disease. Then, by threating the zebra fish with the compound represented by Chemical formula 1 of the present invention at different concentrations (0.3 μM and 1 μM), inhibitory activity on inflammatory bowel disease was examined.
As a zebra fish animal model of DSS-induced ulcerative colitis, zebra fish larvae 3 days after fertilization (3 dpf; days post fertilization) were used. 3 dpf zebra fish larvae were added to a 24-well plate, i.e., 20 larvae per well, and treated with 0.5% DSS to induce ulcerative colitis. After keeping them to 6 dpf zebra fish larva period, DSS was removed, and then they were treated for 5 hours with the compound represented by Chemical formula 1 of the present invention.
The zebra fish larvae which have been treated with the compound represented by Chemical formula 1 of the present invention were then added with TRIzol reagent (300 μl), and then homogenized by using a tissue homogenizer (G20, GINKO). Homogenized zebra fish larvae were maintained for 5 minutes at room temperature, and then treated with chloroform (60 μl). After removing proteins and cell debris, the mixture was centrifuged for 15 minutes at 12,000×g, 4° C. […] Purity and concentration were measured by using a microplate reader (FLUOstar omega, BMG Labtech), and the extracted total RNA was kept at −80° C. […]
For orientation: In qPCR the cycle at which signal appears reflects the starting amount.

T1 sequence (O43353 whole entry): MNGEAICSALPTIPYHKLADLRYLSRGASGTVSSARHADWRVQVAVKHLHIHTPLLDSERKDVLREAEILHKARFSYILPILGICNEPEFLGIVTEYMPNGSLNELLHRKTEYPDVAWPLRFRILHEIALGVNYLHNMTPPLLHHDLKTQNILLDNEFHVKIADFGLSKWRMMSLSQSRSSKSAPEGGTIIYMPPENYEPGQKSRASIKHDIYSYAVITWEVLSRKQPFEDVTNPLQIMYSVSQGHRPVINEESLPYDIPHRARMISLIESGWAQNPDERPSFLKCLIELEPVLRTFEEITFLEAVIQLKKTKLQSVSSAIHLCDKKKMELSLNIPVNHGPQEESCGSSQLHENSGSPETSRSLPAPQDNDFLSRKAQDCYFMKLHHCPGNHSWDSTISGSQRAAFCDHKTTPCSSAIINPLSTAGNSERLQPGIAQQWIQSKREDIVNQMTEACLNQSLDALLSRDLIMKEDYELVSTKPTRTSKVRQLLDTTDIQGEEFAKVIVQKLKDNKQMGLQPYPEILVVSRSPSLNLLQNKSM

As to `COC(=O)C[C@H](OC(=O)/C=C/c1ccc(O)c(O)c1)c1ccc(O)c(O)c1` [Compound 1, 3-[3,4-dihydroxyphenyl]acrylic acid 1-[3,4-dihydroxyphenyl]-2-methoxycarbonylethyl ester], the “inhibitory activity on RIPK2 phosphorylation relative to gefitinib (positive control)” value on RIPK2 was “at least 2 times”. Besides, on RIPK2 (MDP, 24 hours treatment), the “inhibition of activation of RIPK2 (phosphorylation)” value is “can inhibit the activation of RIPK2”. Moreover, the “reduction of transcription amount of proinflammatory cytokines” value in the assay on TNF-α (zebra fish DSS model, TNF-α and IL-1β, compared with 5-ASA and prednisolone) is “much lower concentration than 5-ASA and prednisolone”. The “expression amount of TNF-α compared to DSS model group” value in the assay with TNF-α is “statistically significantly lower”.

As to `Nc1ccc(O)c(C(=O)O)c1` [Compound 5-ASA, 5-aminosalicylic acid, reference compound], the “expression amount of TNF-α compared to DSS model group” value in the assay on TNF-α is “statistically significantly lower”.
